IC50 data for one molecule are collected here from article PMC8998350, “The Evidence for Effective Inhibition of INa Produced by Mirogabalin ((1R,5S,6S)-6-(aminomethyl)-3-ethyl-bicyclo [3.2.0] hept-3-ene-6-acetic acid), a Known Blocker of CaV Channels” (International Journal of Molecular Sciences, 2022).

For this assay, the system named is T1, voltage-gated Na+ (NaV) channel.
T1 construct: native channels of pituitary GH3 cells, isoform not resolved
The assay is described as follows: whole-cell patch clamp of native late INa in GH3 cells. The class given is cell-based. For orientation: In patch-clamp work, channel activity is measured electrically.

pIC50: −log10 of the molar value.

`CCC1=C[C@@H]2[C@H](C1)C[C@]2(CN)CC(=O)O` [MGB, (1R,5S,6S)-6-(aminomethyl)-3-ethyl-bicyclo [3.2.0] hept-3-ene-6-acetic acid] showed a pIC50 of 5.14.

The term pIC50 denotes the IC50 on a negative log10 scale, so that one unit is a factor of ten. Lower therefore signals a high IC50.
